Laboratory results reported in ChEMBL document CHEMBL1125558 (J Med Chem, 1992).

Tests used:
Assay type in all cases: functional
Rattus norvegicus [1] = assay: Percent response at dose 2.5 mg/kg evaluated by dose-response tests in trained rats(post injection interval 15 min)
Rattus norvegicus [2] = assay: Percent response at dose 5 mg/kg evaluated by dose-response tests in trained rats(post injection interval 15 min)
Rattus norvegicus [3] = assay: Percent response at dose 0.62 mg/kg evaluated by dose-response tests in trained rats(post injection interval 15 min)
Rattus norvegicus [4] = assay: Percent response at dose 1.25 mg/kg evaluated by dose-response tests in trained rats(post injection interval 15 min)
Rattus norvegicus [5] = assay: Percent response at dose 10 mg/kg evaluated by dose-response tests in trained rats(post injection interval 15 min)
Rattus norvegicus [6] = assay: Percent response at dose 10 mg/kg evaluated by temporal tests in trained rats(post injection interval 120 min)
Rattus norvegicus [7] = assay: Percent response at dose 10 mg/kg evaluated by temporal tests in trained rats(post injection interval 15 min)
Rattus norvegicus [8] = assay: Percent response at dose 10 mg/kg evaluated by temporal tests in trained rats(post injection interval 30 min)
Rattus norvegicus [9] = assay: Percent response at dose 10 mg/kg evaluated by temporal tests in trained rats(post injection interval 5 min)
Rattus norvegicus [10] = assay: Percent response at dose 10 mg/kg evaluated by temporal tests in trained rats(post injection interval 60 min)
Rattus norvegicus [11] = assay: Number of animals(n) completing 20 responses on either lever out of the number of animals tested (N) at dose 0.62 mg/kg evaluated by dose-response tests in trained rats(post injection interval 15 min); n/N=7/7
Rattus norvegicus [12] = assay: Number of animals(n) completing 20 responses on either lever out of the number of animals tested (N) at dose 1.25 mg/kg evaluated by dose-response tests in trained rats(post injection interval 15 min); n/N=7/7
Rattus norvegicus [13] = assay: Number of animals(n) completing 20 responses on either lever out of the number of animals tested (N) at dose 10 mg/kg evaluated by dose-response tests in trained rats(post injection interval 15 min); n/N=7/7
Rattus norvegicus [14] = assay: Number of animals(n) completing 20 responses on either lever out of the number of animals tested (N) at dose 10 mg/kg evaluated by temporal tests in trained rats(post injection interval 15 min); n/N=7/7
Rattus norvegicus [15] = assay: Number of animals(n) completing 20 responses on either lever out of the number of animals tested (N) at dose 10 mg/kg evaluated by temporal tests in trained rats(post injection interval 30 min); n/N=7/7
Rattus norvegicus [16] = assay: Number of animals(n) completing 20 responses on either lever out of the number of animals tested (N) at dose 10 mg/kg evaluated by temporal tests in trained rats(post injection interval 5 min); n/N=7/7
Rattus norvegicus [17] = assay: Number of animals(n) completing 20 responses on either lever out of the number of animals tested (N) at dose 10 mg/kg evaluated by temporal tests in trained rats(post injection interval 60 min); n/N=7/7
Rattus norvegicus [18] = assay: Number of animals(n) completing 20 responses on either lever out of the number of animals tested (N) at dose 2.5 mg/kg evaluated by dose-response tests in trained rats(post injection interval 15 min); n/N=7/7
Rattus norvegicus [19] = assay: Number of animals(n) completing 20 responses on either lever out of the number of animals tested (N) at dose 5 mg/kg evaluated by dose-response tests in trained rats; n/N=7/7
Rattus norvegicus [20] = assay: Number of animals(n) completing 20 responses on either lever out of the number of animals tested (N) at dose 10 mg/kg evaluated by temporal tests in trained rats(post injection interval 120 min); n/N=7/7
Rattus norvegicus [21] = assay: Mean responses per minute at dose 10 mg/kg evaluated by dose-response tests in trained rats(post injection interval 15 min)
Rattus norvegicus [22] = assay: Mean responses per minute at dose 10 mg/kg evaluated by temporal tests in trained rats(post injection interval 15 min)
Rattus norvegicus [23] = assay: Mean responses per minute at dose 10 mg/kg evaluated by temporal tests in trained rats(post injection interval 30 min)
Rattus norvegicus [24] = assay: Mean responses per minute at dose 10 mg/kg evaluated by temporal tests in trained rats(post injection interval 5 min)
Rattus norvegicus [25] = assay: Mean responses per minute at dose 10 mg/kg evaluated by temporal tests in trained rats(post injection interval 60 min)
Rattus norvegicus [26] = assay: Mean responses per minute at dose 2.5 mg/kg evaluated by dose-response tests in trained rats(post injection interval 15 min)
Rattus norvegicus [27] = assay: Mean responses per minute at dose 5 mg/kg evaluated by dose-response tests in trained rats(post injection interval 15 min)
Rattus norvegicus [28] = assay: Mean responses per minute at dose 0.62 mg/kg evaluated by dose-response tests in trained rats(post injection interval 15 min)
Rattus norvegicus [29] = assay: Mean responses per minute at dose 1.25 mg/kg evaluated by dose-response tests in trained rats(post injection interval 15 min)
Rattus norvegicus [30] = assay: Mean responses per minute at dose 10 mg/kg evaluated by temporal tests in trained rats(post injection interval 120 min)

## COC(=O)[C@H]1[C@@H](OC(=O)c2ccccc2)C[C@@H]2CC[C@H]1N2C [COCAINE]
Rattus norvegicus [1]
  Drug response: 61%
Rattus norvegicus [2]
  Drug response: 98%
Rattus norvegicus [3]
  Drug response: 6%
Rattus norvegicus [4]
  Drug response: 44%
Rattus norvegicus [5]
  Drug response: 99%
Rattus norvegicus [6]
  Drug response: 31%
Rattus norvegicus [7]
  Drug response: 99%
Rattus norvegicus [8]
  Drug response: 100%
Rattus norvegicus [9]
  Drug response: 85%
Rattus norvegicus [10]
  Drug response: 81%
Rattus norvegicus [11]
  No. resp animals / Total: 7 / 7
Rattus norvegicus [12]
  n/N: 7 / 7
Rattus norvegicus [13]
  No. resp animals / Total: 7 / 7
Rattus norvegicus [14]
  No. resp animals / Total: 7 / 7
Rattus norvegicus [15]
  No. resp animals / Total: 7 / 7
Rattus norvegicus [16]
  No. resp animals / Total: 7 / 7
Rattus norvegicus [17]
  No. resp animals / Total: 7 / 7
Rattus norvegicus [18]
  No. resp animals / Total: 7 / 7
Rattus norvegicus [19]
  No. resp animals / Total: 7 / 7
Rattus norvegicus [20]
  No. resp animals / Total: 7 / 7
Rattus norvegicus [21]
  Rate response: 76 min⁻¹
Rattus norvegicus [22]
  Rate response: 76 min⁻¹
Rattus norvegicus [23]
  Rate response: 61 min⁻¹
Rattus norvegicus [24]
  Rate response: 28 min⁻¹
Rattus norvegicus [25]
  Rate response: 23 min⁻¹
Rattus norvegicus [26]
  Rate response: 32 min⁻¹
Rattus norvegicus [27]
  Rate response: 89 min⁻¹
Rattus norvegicus [28]
  Rate response: 27 min⁻¹
Rattus norvegicus [29]
  Rate response: 21 min⁻¹
Rattus norvegicus [30]
  Rate response: 28 min⁻¹
